Measured values as given in patent US20210395310A1, “Cyclic Peptide” (The University of Tokyo, priority 2018, published 2021).
Positions of bridges follow the written chain, without caps; N, C: chain ends. Non-standard residues stand in square brackets, D forms with d. Residues, ends and D or L forms follow the SMILES beside them. PEG12 = NCCOCCOCCOCCOCCOCCOCCOCCOCCOCCOCCOCCOCCC(=O)O; βAla = NCCC(=O)O

Key:
HGF [1] = biological target: T1, HGF (Homo sapiens, UniProt P14210); experiment: Binding of cyclic peptides to immobilized HGF by SPR (Biacore T200); conditions: immobilized biotinylated HGF, single cycle kinetics
T1 construct: the full-length human HGF cDNA was cloned into pEHX1.1 plasmid; made in house; host or cells: Chinese hamster ovary (CHO) cells
Description: Binding of the cyclic peptides to immobilized HGF was measured using surface plasmon resonance (SPR) with Biacore T200 (product of GE Healthcare). Specifically, 2000 resonance units (RU) of biotinylated HGF was immobilized onto a CAP sensor chip by using a biotin capture kit (product of GE Healthcare).
Binding of the cyclic peptides was tested by injecting varying concentrations of the cyclic peptides into an HBS EP+buffer (10 mM HEPES (pH 7.4), 150 mM NaCl, 3 mM EDTA, and 0.05% (v/v) Surfactant P20) containing 0.1% DMSO at a flow rate of 30 μl/min. Binding of the cyclic peptides to HGF was analyzed by single cycle kinetics analysis.

tcHGF = biological target: T2, tcHGF (Homo sapiens, UniProt P14210); experiment: Tissue staining of frozen human lung cancer tissue; conditions: thirty six lung cancer tissue sections
T2 construct: subjected to extracellular processing (cleavage) by a specific protease and is to be converted into two-chain HGF; tissue US Biomax FLU401B; host or cells: frozen human lung cancer tissue sections
Description: A frozen human lung cancer tissue array FLU401B was obtained from US Biomax. A tissue section was fixed in a 4% (w/v) paraformaldehyde PBS solution at room temperature for 30 minutes, treated for one hour with a 3% (w/v) bovine serum-derived albumin (BSA) PBS solution to prevent non-specific adsorption of a probe, and incubated overnight at 4° C. with HiP-8-PEG11-biotin, a primary antibody against human HGF (clone: t5A11, Umitsu M, Sakai K, Ogasawara S, Kaneko M, Asaki R, Tamura-Kawakami K, Kato Y, Matsumoto K, Takagi J. Probing conformational and functional states of human hepatocyte growth factor by a panel of monoclonal antibodies. Scientific Reports, 6: 33149, 2016), or phosphorylated MET (phospho Y1230/1234/Y1235, product of Abeam) diluted with Can Get Signal (registered trademark) antibody staining (product of Toyobo).
After washing three times with PBS, the probes were detected with streptavidin or goat anti-mouse IgG labeled with Alexa Fluor 488 and goat anti-rabbit IgG (product of Thermo Fisher Scientific) labeled with Alexa Fluor 594.
For semi-quantitative detection of antibody staining, stained region and mixed region in each tissue was quantitatively determined by ImageJ software (product of NIH). […]

B16-F10 melanoma = experiment: Cell migration test; format: cell-based; conditions: transwell, 16 hours
Description: B16F10 cells (1×10^5 cells/insert) cultured in 200 μl of a RPMI1640 medium containing 0.5% FBS were seeded in the upper insert (transwell having a diameter of 8 mm, product of Corning) while 800 μl of a RPMI1640 medium with or without hHGF or HiP-8, or an anti-human HGF rabbit polyclonal antibody and supplemented with 0.5% FBS was added to the bottom chamber. The cells were cultured for 16 hours and fixed with 4% PFA solution in PBS. The cells attached to the bottom surface of the membrane were stained with 0.4% crystal violet solution in 20% methanol and the number of cells was counted.

PC-9 cells = experiment: Gefitinib resistance test; format: cell-based, human; conditions: gefitinib, HGF 20 ng/mL, 72 hours
Description: The resistance to gefitinib, an anticancer agent, was tested by seeding human lung cancer cells, PC-9 cells, on a 24-well plate and cultured for 24 hours on a RPMI medium containing 10% fetal bovine serum. The number of living cells was counted after non-addition or addition of gefitinib ([…]), HGF (20 ng/mL), or HiP8-PEG11 (1-1000 nM) and culturing for 72 hours.

[2] = tested on: phosphorylation of MET, Gab1, Akt, and Erk1/2; experiment: Western blotting analysis of HGF-induced phosphorylation in EHMES-1 cells; format: cell-based; conditions: 2 nM HGF, HiP-8 10, 100, 1,000, 10,000 nM
Description: EHMES-1 cells were cultured on a 6-well plate until they were from 80 to 90% confluent. After starvation for 6 hours, the cells were stimulated for 10 minutes with 2 nM hHGF in a culture medium in the absence of a cyclic peptide or in the presence of 10, 100, 1,000, or 10,000 nM cyclic peptide. The resulting cells were washed with PBS and lysed with 200 μl of lysis buffer 17 (product of R&D Systems) containing 1× Complete protease inhibitor cocktail (product of Roche). The protein concentration was measured by BCA assay (product of Thermo Fisher Scientific), and the protein was provided for 10% polyacrylamide gel SDS-PAGE. The protein was transferred onto a PVDF (polyvinylidene difluoride) membrane (Bio-Rad) and detected using a Can Get Signal (registered trademark) solution 1 containing a primary antibody (diluted at 1:2000), that is, MET (CST, 25H2), phospho-MET (Tyr1234/1235) (CST, D26), Akt (CST, 11E7), phospho-Akt (Ser473) (CST, D9E), Erk1/2 (CST, 137F5), phospho-Erk1/2 (Thr202/Tyr204) (CST, D13.14.4E), Gab1 (CST) and phospho-Gab1 (Tyr627) (CST, C32H2), and Can Get Signal (registered trademark) solution 2 (product of Toyobo) containing a horseradish peroxidase-bound secondary antibody (product of Dako) (diluted at 1:5000). […]

HGF-MET interaction = biological target: T3, HGF-MET interaction (Homo sapiens, UniProt P14210); experiment: Competition of HiP-8 against binding between HGF or HGF fragment and MET ECD by SPR; conditions: immobilized MET external domain, varying HiP-8 concentrations
T3 construct: the full-length human HGF cDNA was cloned into pEHX1.1 plasmid; made in house; host or cells: Chinese hamster ovary (CHO) cells (HGF)
Description: Competition of HiP-8 against the binding between HGF or HGF fragment and MET ECD was measured by surface plasmon resonance (SPR) with Biacore 3000 (product of GE Flealthcare). His-labeled MET-ECD was supported on the surface of a nitrilotriacetic acid (NTA)-coated chip at 1000 RU. HiP-8 was mixed in advance at gradually increasing concentrations with 5 nM HGF, 30 nM NK4, or 30 nM SP fragment, and the resulting mixture was tested in 10 mM TBS (pH 7.4), 300 mM NaCl, and 0.05% Tween 20 (v/v) at a flow rate of 30 μl/min.

HGF [3] = biological target: T1, HGF; experiment: Change in conformational structure of HGF: trypsin digestion; conditions: HGF 2.5 μM ± HiP-8 10 μM, room temperature, 30 minutes
Description: System of HGF (2.5 μM) with or without HiP-8 were digested with trypsin at room temperature for 30 minutes. A trypsin:HGF molar ratio was set at 0:1, 0.004:1, 0.012:1, 0.037:1, 0.11:1, 0.33:1, and 1:1. The product obtained by digestion was analyzed on from 5 to 20% SDS-PAGE under reducing conditions and stained with Coomassie Blue.
Target sequence in this assay (P14210 32-489 isoform P14210-3): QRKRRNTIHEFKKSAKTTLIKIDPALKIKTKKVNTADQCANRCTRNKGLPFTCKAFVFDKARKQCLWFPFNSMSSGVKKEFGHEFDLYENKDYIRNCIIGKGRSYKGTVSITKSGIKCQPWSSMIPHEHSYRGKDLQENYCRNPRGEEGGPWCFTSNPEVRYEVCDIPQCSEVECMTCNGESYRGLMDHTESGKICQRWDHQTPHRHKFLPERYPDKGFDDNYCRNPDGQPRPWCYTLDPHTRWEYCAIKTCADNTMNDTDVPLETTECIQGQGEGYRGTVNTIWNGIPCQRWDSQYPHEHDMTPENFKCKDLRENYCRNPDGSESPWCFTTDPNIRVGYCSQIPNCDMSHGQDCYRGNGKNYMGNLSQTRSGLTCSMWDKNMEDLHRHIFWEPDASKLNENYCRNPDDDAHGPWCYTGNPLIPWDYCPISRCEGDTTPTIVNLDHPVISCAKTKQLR
Target sequence in this assay (P14210 495-728): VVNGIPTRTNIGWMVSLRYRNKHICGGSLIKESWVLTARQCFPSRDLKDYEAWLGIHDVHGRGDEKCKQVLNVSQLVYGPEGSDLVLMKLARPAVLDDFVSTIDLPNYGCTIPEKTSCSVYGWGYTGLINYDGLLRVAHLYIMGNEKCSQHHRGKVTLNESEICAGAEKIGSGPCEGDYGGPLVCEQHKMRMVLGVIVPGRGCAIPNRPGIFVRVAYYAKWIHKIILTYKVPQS

scHGF(Xa) = biological target: T4, scHGF(Xa) (Homo sapiens, UniProt P14210, K491I/L493G/Q492E); experiment: Binding of scHGF(Xa) to immobilized HiP8-PEG11 by SPR (Biacore 3000); conditions: immobilized HiP-8-PEG11
T4 construct: The full-length HGF protein and N-terminally truncated HGF protein; hexahistidine (with TEV site) (C, cleaved yes); made in house; host or cells: Expi293F cells
Description: (§1) Binding of HGF and HGF fragments to immobilized HiP8-PEG11 was measured by surface plasmon resonance (SPR) with Biacore 3000 (product of Ge Flealthcare). Hip8-PEG11-biotin was supported on the surface of a streptavidin-coated chip at 10 RU (resonance unit). The test was performed by injecting HGF and HGF fragments with varying concentrations into 10 mM TBS (pH 7.4), 150 mM NaCl, and 0.05% Tween 20 (v/v) at a flow rate of 30 μl/min. Binding affinity was analyzed from a fitting model of steady-state affinity by multi-cycle kinetics analysis.
(§2) HGF was an active type HGF without substitution of the cleavage site of wild type HGF (KQLR/V) with the recognition sequence of Factor Xa (IEGR/V) and domain-deficiency and was a two-chain HGF capable of activating MET. tcHGF (Xa) was an HGF with substitution of the cleavage site of the HGF with the recognition sequence of Factor Xa (IEGR/V) and was cleaved into two chains by the Factor Xa treatment. It was also a two-chain HGF capable of activating MET. On the other hand, scHGF (Xa) was obtained by substituting the cleavage site of HGF with the recognition sequence of Factor Xa (IEGR/V).

[4] = tested on: MET activation/tyrosine phosphorylation; experiment: MET activation inhibition test in mice; format: in vivo; conditions: human HGF knocked-in SCID mice with PC-9 tumors, intravenous injection
From the text: PC-9 human non-small cell lung cancer cells, which were to express human HGF, were transplanted subcutaneously to human HGF knocked-in SCID mice at 3×10^6 cells/site. On day 28 after transplantation, HiP8-PEG11 in PBS/phosphate buffered physiological saline solution was intravenously injected. The tumor tissue was removed, and MET activated/tyrosine-phosphorylated and a total MET amount in the tumor tissue were quantitatively determined by western blotting with the tissue extract. It is to be noted that the tumor tissue was homogenized in a RIPA buffer solution. Each sample containing […] of the protein was provided for SDS-PAGE and western blotting. Tyrosine-phosphorylated MET and a total MET amount were detected by western blotting.

HGF [5] = biological target: T1, HGF; experiment: Binding of HGF to immobilized HiP8-PEG11 by SPR (Biacore 3000); conditions: immobilized HiP-8-PEG11, read-out: KD of HGF binding to immobilized peptide
Description: as §1, §2

T2 sequence (P14210 32-494 limits assumed): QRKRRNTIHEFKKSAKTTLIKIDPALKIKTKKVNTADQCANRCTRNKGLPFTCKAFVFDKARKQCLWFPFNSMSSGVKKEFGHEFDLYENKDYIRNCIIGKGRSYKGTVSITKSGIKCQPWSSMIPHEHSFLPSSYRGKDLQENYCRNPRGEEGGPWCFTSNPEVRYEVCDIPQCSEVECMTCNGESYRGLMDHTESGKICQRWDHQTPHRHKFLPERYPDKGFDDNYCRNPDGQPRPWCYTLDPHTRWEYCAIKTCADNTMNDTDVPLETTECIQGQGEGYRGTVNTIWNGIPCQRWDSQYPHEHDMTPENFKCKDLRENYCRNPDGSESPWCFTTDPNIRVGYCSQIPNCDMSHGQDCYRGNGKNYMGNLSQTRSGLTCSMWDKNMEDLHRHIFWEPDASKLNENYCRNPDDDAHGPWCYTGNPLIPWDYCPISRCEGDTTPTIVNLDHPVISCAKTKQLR
T2 sequence (P14210 495-728 limits assumed): as the sequence (P14210 495-728) above
T4 sequence (P14210 32-723 isoform P14210-3 K486I/Q487E/L488G): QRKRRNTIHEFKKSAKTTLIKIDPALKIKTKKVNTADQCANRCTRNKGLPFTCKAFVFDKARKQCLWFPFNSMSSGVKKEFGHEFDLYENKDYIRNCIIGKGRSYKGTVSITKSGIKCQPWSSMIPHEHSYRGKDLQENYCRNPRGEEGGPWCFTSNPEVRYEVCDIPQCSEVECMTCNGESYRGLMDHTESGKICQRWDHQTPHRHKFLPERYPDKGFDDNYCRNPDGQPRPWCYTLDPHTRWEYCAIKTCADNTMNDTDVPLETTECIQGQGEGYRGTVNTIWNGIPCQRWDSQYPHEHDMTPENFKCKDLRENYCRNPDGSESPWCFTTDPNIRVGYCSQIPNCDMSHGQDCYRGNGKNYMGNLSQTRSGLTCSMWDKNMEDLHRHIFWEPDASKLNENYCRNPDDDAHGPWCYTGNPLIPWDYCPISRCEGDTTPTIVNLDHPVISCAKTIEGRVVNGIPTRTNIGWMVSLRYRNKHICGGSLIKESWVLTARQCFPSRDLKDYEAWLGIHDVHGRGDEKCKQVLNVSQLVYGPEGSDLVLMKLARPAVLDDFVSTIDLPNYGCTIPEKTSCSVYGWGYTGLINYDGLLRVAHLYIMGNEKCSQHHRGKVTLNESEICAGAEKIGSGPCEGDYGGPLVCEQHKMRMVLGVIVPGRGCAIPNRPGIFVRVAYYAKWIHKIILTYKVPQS
T3 sequence (P14210 32-489 isoform P14210-3): as the sequence (P14210 32-489 isoform P14210-3) above
T3 sequence (P14210 495-728): as the sequence (P14210 495-728) above

Row | kon (HGF [1]; read-out: Ka (association rate)) | koff (HGF [1]; read-out: Kd (dissociation rate)) | Kd (HGF [5]) | Compound | correlation of staining intensity of tcHGF detected by peptide with pMET (tcHGF) | B16-F10 melanoma migration induced by HGF (B16-F10 melanoma) | effect on gefitinib resistance induced by HGF (PC-9 cells) | phosphorylation of MET, Gab1, Akt, and Erk1/2 induced by HGF [2] | mode of inhibition of HGF-MET interaction (HGF-MET interaction) | structural change of HGF (trypsin proteolysis of SP chain) (HGF [3]) | binding of scHGF(Xa) to immobilized peptide (scHGF(Xa)) | MET activation/tyrosine phosphorylation in tumor tissue [4]
1 | 1.1e+06 M⁻¹ s⁻¹ | 0.0004 s⁻¹ | – | CC(C)C[C@@H]1NC(=O)[C@@H]2CCCN2C(=O)[C@@H](Cc2c[nH]c3ccccc23)NC(=O)CSC[C@@H](C(=O)NCC(N)=O)NC(=O)[C@H](CCCNC(=N)N)NC(=O)[C@H](CCCCN)NC(=O)[C@H](CO)NC(=O)[C@H](Cc2ccc(O)cc2)NC(=O)[C@H](Cc2c[nH]c3ccccc23)NC(=O)[C@H](Cc2c[nH]c3ccccc23)NC(=O)[C@H](CCCCN)NC(=O)[C@H](CO)NC1=O [HiP-8, PLSKWWYSKR] | strong correlation with the staining intensity of pMET | inhibited B16-F10 melanoma migration induced by HGF at a level equivalent to that of an anti-HGF antibody | inhibited gefitinib resistance induced by HGF | inhibited phosphorylation of MET, Gab1, Akt, and Erk1/2 | uncompetitive inhibition of HGF-MET interaction | induced a change in the conformation of HGF | – | –
2 | – | – | 0.9 nM | CC(C)C[C@@H]1NC(=O)[C@@H]2CCCN2C(=O)[C@H](Cc2c[nH]c3ccccc23)NC(=O)CSC[C@@H](C(=O)NCCC(=O)NCCOCCOCCOCCOCCOCCOCCOCCOCCOCCOCCOCCOCCC(N)=O)NC(=O)[C@H](CCCNC(=N)N)NC(=O)[C@H](CCCCN)NC(=O)[C@H](CO)NC(=O)[C@H](Cc2ccc(O)cc2)NC(=O)[C@H](Cc2c[nH]c3ccccc23)NC(=O)[C@H](Cc2c[nH]c3ccccc23)NC(=O)[C@H](CCCCN)NC(=O)[C@H](CO)NC1=O [HiP-8-PEG11] ({CH2CO}-WPLSKWWYSKRC[βAla][PEG12]-NH2; thioether N-12) | – | – | – | – | – | – | very limited portion of the scHGF(Xa) bound | dose-dependent inhibition of MET activation/tyrosine phosphorylation
